Measured values taken from ChEMBL document CHEMBL3407427, “Discovery of efficacious Pseudomonas aeruginosa-targeted siderophore-conjugated monocarbams by application of a semi-mechanistic pharmacokinetic/pharmacodynamic model” (J Med Chem, 2015).
Values after ≈ are worked out from the molar mass of the structure shown.

Experiments:
Pseudomonas aeruginosa [1] = test: Antimicrobial activity against MexABCDXY-deficient Pseudomonas aeruginosa PAO1 ARC546 by broth microdilution method; type: functional
Pseudomonas aeruginosa [2] = test: Inhibition of Pseudomonas aeruginosa PBP3 acylation activity by BOCILLIN FL-based assay
Pseudomonas aeruginosa [3] = test: Antimicrobial activity against Pseudomonas aeruginosa PAO1 ARC545 by broth microdilution method; type: functional
[4] = Half life in PBS buffer in pH 7.4 by UPLC analysis; type: ADME
[5] = Percentage unbound in human plasma at 10 uM after 16 hrs by LC-MS/MS analysis
Escherichia coli = test: Antimicrobial activity against Escherichia coli by broth microdilution method; type: functional
[6] = Half life in Wistar Han rat at 1 mg/kg, iv infusion; type: ADME, organism-based; parameters: dose 1 mg/kg, route intravenous; details: in vivo
Klebsiella pneumoniae = test: Antimicrobial activity against Klebsiella pneumoniae by broth microdilution method; type: functional
Acinetobacter baumannii = test: Antimicrobial activity against Acinetobacter baumannii by broth microdilution method; type: functional
Pseudomonas aeruginosa [7] = test: Antimicrobial activity against Pseudomonas aeruginosa by broth microdilution method; type: functional
[8] = Volume of distribution at steady state in Wistar Han rat at 1 mg/kg, iv infusion; type: ADME, organism-based; parameters: dose 1 mg/kg, route intravenous; details: in vivo, read-out: Vdss
[9] = Plasma protein binding in Wistar Han rat as percentage unbound
[10] = Clearance in Wistar Han rat at 1 mg/kg, iv infusion; type: ADME, organism-based; parameters: dose 1 mg/kg, route intravenous; details: in vivo

| SMILES | MIC (Pseudomonas aeruginosa [1]) [µg/mL] | Kinact (Pseudomonas aeruginosa [2]) | MIC (Pseudomonas aeruginosa [3]) [µg/mL] | half-life [4] [h] | fraction unbound at 16 h, 10 µM [5] | MIC90 (Escherichia coli) [µg/mL] | half-life [6] [h] | MIC90 (Klebsiella pneumoniae) [µg/mL] | MIC90 (Acinetobacter baumannii) [µg/mL] | MIC90 (Pseudomonas aeruginosa [7]) [µg/mL] | Vd [8] [L/kg] | fraction unbound [9] | clearance [10] [mL/min/kg] |
| --- | --- | --- | --- | --- | --- | --- | --- | --- | --- | --- | --- | --- | --- |
| C[C@H]1[C@H](NC(=O)/C(=N\OC(C)(C)C(=O)O)c2csc(N)n2)C(=O)N1C(=O)NS(=O)(=O)N1N=C(c2cc(=O)c(O)c[nH]2)NCC1=O | 2 (≈ 2.99 µM) | 3.8 ×10³ /M/s | 16 (≈ 23.9 µM) | 40 |  |  |  |  |  |  |  |  |  |
| C[C@H]1[C@H](NC(=O)/C(=N\OC(C)(C)C(=O)O)c2csc(N)n2)C(=O)N1C(=O)NS(=O)(=O)Nc1cc(=O)c(O)c[nH]1 | 1 (≈ 1.7 µM) | 1.3 ×10⁴ /M/s | 16 (≈ 27.3 µM) | 103 | 0.23 |  |  |  |  |  |  |  |  |
| C[C@H]1[C@H](NC(=O)/C(=N\OC(C)(C)C(=O)O)c2csc(N)n2)C(=O)N1C(=O)NS(=O)(=O)n1nc(-c2cc(=O)c(O)c[nH]2)n(C[C@@H](O)CO)c1=O | < 0.06 | 7.2 ×10⁴ /M/s | 0.25 (≈ 0.343 µM) | 138 | 0.04 | 16 (≈ 22 µM) | 0.39 | 8 (≈ 11 µM) | > 128 | 0.25 (≈ 0.343 µM) | 0.28 | 0.04 | 9 |
| C[C@H]1[C@H](NC(=O)/C(=N\OC(C)(C)C(=O)O)c2csc(N)n2)C(=O)N1C(=O)NS(=O)(=O)N1CCN(C(=O)c2cc(=O)c(O)c[nH]2)CC1 | < 0.06 | 2.4 ×10⁴ /M/s | 8 (≈ 11.7 µM) | > 150 | 0.26 |  |  |  |  |  |  |  |  |
| CC(C)(O/N=C(\C(=O)NC1CN(C(=O)NS(=O)(=O)N2CCN(NC(=O)c3cc(=O)c(O)c[nH]3)C2=O)C1=O)c1csc(N)n1)C(=O)O (configuration not stated) [PIRAZMONAM] | 0.06 (≈ 0.0876 µM) | 1.4 ×10⁵ /M/s | 0.25 (≈ 0.365 µM) | 41 | 0.29 |  |  |  |  |  |  |  |  |
| C[C@H]1[C@H](NC(=O)/C(=N\OC(C)(C)C(=O)O)c2csc(N)n2)C(=O)N1S(=O)(=O)O [AZTREONAM] | 0.25 (≈ 0.574 µM) |  | 4 (≈ 9.19 µM) |  |  | > 512 |  | > 512 | > 512 | 1020 (≈ 2350 µM) |  |  |  |
| C[C@H]1[C@H](NC(=O)/C(=N\OC(C)(C)C(=O)O)c2csc(N)n2)C(=O)N1C(=O)NS(=O)(=O)N1C[C@@H](NC(=O)[C@H](CC(=O)O)NC(=O)c2cc(=O)c(O)cn2O)CC1=O | < 0.06 | 2 ×10⁵ /M/s | 0.25 (≈ 0.302 µM) | > 150 | 0.43 |  |  |  |  |  |  |  |  |
| C[C@H]1[C@H](NC(=O)/C(=N\OC(C)(C)C(=O)O)c2csc(N)n2)C(=O)N1C(=O)NS(=O)(=O)N1CC[C@H](NC(=O)c2cc(=O)c(O)c[nH]2)C1 | < 0.06 | 4.6 ×10⁴ /M/s | 1 (≈ 1.46 µM) | > 150 | 0.33 |  |  |  |  |  |  |  |  |
| CC(C)(O/N=C(\C(=O)N[C@@H]1C(=O)N(C(=O)NS(=O)(=O)N2C[C@@H](NC(=O)NCc3cc(=O)c(O)cn3O)CC2=O)C1(C)C)c1csc(N)n1)C(=O)O | 1 (≈ 1.32 µM) | 8.1 ×10² /M/s | 8 (≈ 10.6 µM) | > 150 | 0.23 |  |  |  |  |  |  |  |  |
| C[C@H]1[C@H](NC(=O)/C(=N\OC(C)(C)C(=O)O)c2csc(N)n2)C(=O)N1C(=O)NS(=O)(=O)N1C[C@@H](n2cc(-c3cc(=O)c(O)c[nH]3)nn2)CC1=O | < 0.06 | 2.3 ×10⁵ /M/s | 4 (≈ 5.54 µM) | 117 | 0.31 |  |  |  |  |  |  |  |  |
| C[C@H]1[C@H](NC(=O)/C(=N\OC(C)(C)C(=O)O)c2csc(N)n2)C(=O)N1C(=O)NS(=O)(=O)N1CCN(C(=O)c2cc(=O)c(O)c[nH]2)N(C)C1=O | < 0.06 | 2.6 ×10⁴ /M/s | 1 (≈ 1.4 µM) | 38 | 0.14 | 64 (≈ 89.8 µM) | 0.37 | 64 (≈ 89.8 µM) | > 128 | 2 (≈ 2.81 µM) | 0.42 | 0.15 | 12 |

The next lines start with the values.

| MIC (Pseudomonas aeruginosa [1]) [µg/mL] | Kinact (Pseudomonas aeruginosa [2]) | MIC (Pseudomonas aeruginosa [3]) [µg/mL] | half-life [4] [h] | fraction unbound at 16 h, 10 µM [5] | MIC90 (Escherichia coli) [µg/mL] | half-life [6] [h] | MIC90 (Klebsiella pneumoniae) [µg/mL] | MIC90 (Acinetobacter baumannii) [µg/mL] | MIC90 (Pseudomonas aeruginosa [7]) [µg/mL] | Vd [8] [L/kg] | fraction unbound [9] | clearance [10] [mL/min/kg] | SMILES |
| --- | --- | --- | --- | --- | --- | --- | --- | --- | --- | --- | --- | --- | --- |
| 1 (≈ 1.38 µM) | 2.4 ×10⁴ /M/s | 16 (≈ 22 µM) | 30 | 0.26 |  |  |  |  |  |  |  |  | C[C@H]1[C@H](NC(=O)/C(=N\OC(C)(C)C(=O)O)c2csc(N)n2)C(=O)N1C(=O)NS(=O)(=O)N1C[C@@H](NC(=O)NCc2cc(=O)c(O)c[nH]2)CC1=O |
| 0.25 (≈ 0.33 µM) | 3.1 ×10⁴ /M/s | 0.5 (≈ 0.661 µM) | 19 | 0.27 |  |  |  |  |  |  |  |  | C[C@H]1[C@H](NC(=O)/C(=N\OC(C)(C)C(=O)O)c2csc(N)n2)C(=O)N1C(=O)NS(=O)(=O)N1C[C@@H](N(C)C(=O)NCc2cc(=O)c(O)cn2O)CC1=O |
| < 0.06 | 2.5 ×10⁴ /M/s | 8 (≈ 13.3 µM) | > 150 | 0.61 |  |  |  |  |  |  |  |  | C[C@H]1[C@H](NC(=O)/C(=N\OC(C)(C)C(=O)O)c2csc(N)n2)C(=O)N1C(=O)NS(=O)(=O)NCc1cc(=O)c(O)c[nH]1 |
| 0.5 (≈ 0.615 µM) | 3.8 ×10⁴ /M/s | 1 (≈ 1.23 µM) | > 150 | 0.14 |  |  |  |  |  |  |  |  | C[C@H]1[C@H](NC(=O)/C(=N\OC(C)(C)C(=O)O)c2csc(N)n2)C(=O)N1C(=O)NS(=O)(=O)N1C[C@@H](NC(=O)[C@H](CC(=O)O)NC(=O)c2cc(=O)c(O)c[nH]2)CC1=O |
| < 0.06 | 1.5 ×10⁵ /M/s | 1 (≈ 1.43 µM) | > 150 | 0.24 | 32 (≈ 45.9 µM) | 0.34 | 32 (≈ 45.9 µM) | > 64 | 2 (≈ 2.87 µM) | 0.44 | 0.06 | 16 | C[C@H]1[C@H](NC(=O)/C(=N\OC(C)(C)C(=O)O)c2csc(N)n2)C(=O)N1C(=O)NS(=O)(=O)N1C[C@@H](NC(=O)c2cc(=O)c(O)c[nH]2)CC1=O |
| 0.25 (≈ 0.29 µM) | 1.8 ×10⁴ /M/s | 4 (≈ 4.65 µM) | > 150 | 0.21 |  |  |  |  |  |  |  |  | C[C@H]1[C@H](NC(=O)/C(=N\OC(C)(C)C(=O)O)c2csc(N)n2)C(=O)N1C(=O)NS(=O)(=O)N1C[C@@H](NC(=O)[C@H](CCS(C)(=O)=O)NC(=O)c2cc(=O)c(O)c[nH]2)CC1=O |
| < 0.06 | 3 ×10⁵ /M/s | 0.5 (≈ 0.701 µM) | > 150 | 0.08 |  |  |  |  |  |  |  |  | C[C@H]1[C@H](NC(=O)/C(=N\OC(C)(C)C(=O)O)c2csc(N)n2)C(=O)N1C(=O)NS(=O)(=O)N1C[C@@H](NC(=O)c2cc(=O)c(O)cn2O)CC1=O |
| 0.25 (≈ 0.33 µM) | 1.9 ×10⁴ /M/s | 1 (≈ 1.32 µM) | > 150 | 0.26 |  |  |  |  |  |  |  |  | C[C@H]1[C@H](NC(=O)/C(=N\OC(C)(C)C(=O)O)c2csc(N)n2)C(=O)N1C(=O)NS(=O)(=O)N1C[C@@H](NC(=O)N(C)Cc2cc(=O)c(O)cn2O)CC1=O |
| 0.13 (≈ 0.182 µM) | 3.4 ×10³ /M/s | 4 (≈ 5.6 µM) | 87 | 0.26 |  |  |  |  |  |  |  |  | C[C@H]1[C@H](NC(=O)/C(=N\OCC(=O)O)c2csc(N)n2)C(=O)N1C(=O)NS(=O)(=O)N1C[C@@H](NC(=O)NCc2cc(=O)c(O)cn2O)CC1=O |
| 0.25 (≈ 0.331 µM) | 2.4 ×10⁴ /M/s | 2 (≈ 2.65 µM) | > 150 | 0.38 |  |  |  |  |  |  |  |  | C[C@H]1[C@H](NC(=O)/C(=N\OC(C)(C)C(=O)O)c2csc(N)n2)C(=O)N1C(=O)NS(=O)(=O)N1C[C@@H](NC(=O)CNC(=O)c2cc(=O)c(O)c[nH]2)CC1=O |
| 0.5 (≈ 0.629 µM) | 1.4 ×10⁴ /M/s | 8 (≈ 10.1 µM) | 114 | 0.28 |  |  |  |  |  |  |  |  | C[C@H]1[C@H](NC(=O)/C(=N\OC(C)(C)C(=O)O)c2csc(N)n2)C(=O)N1C(=O)NS(=O)(=O)N1C[C@@H](NC(=O)[C@@H]2CCCN2C(=O)c2cc(=O)c(O)c[nH]2)CC1=O |
| 0.5 (≈ 0.638 µM) | 9.4 ×10³ /M/s | 4 (≈ 5.1 µM) | 51 | 0.18 |  |  |  |  |  |  |  |  | C[C@H]1[C@H](NC(=O)/C(=N\OC(C)(C)C(=O)O)c2csc(N)n2)C(=O)N1C(=O)NS(=O)(=O)N1C[C@@H](NC(=O)[C@H](CN)NC(=O)c2cc(=O)c(O)c[nH]2)CC1=O |
| < 0.06 | 3.5 ×10⁵ /M/s | 0.5 (≈ 0.717 µM) | > 150 | 0.25 |  |  |  |  |  |  |  |  | C[C@H]1[C@H](NC(=O)/C(=N\OC(C)(C)C(=O)O)c2csc(N)n2)C(=O)N1C(=O)NS(=O)(=O)N1C[C@H](NC(=O)c2cc(=O)c(O)c[nH]2)CC1=O |
| < 0.06 | 1 ×10⁵ /M/s | 0.5 (≈ 0.649 µM) | > 150 | 0.45 |  |  |  |  |  |  |  |  | C[C@H]1[C@H](NC(=O)/C(=N\OC(C)(C)C(=O)O)c2csc(N)n2)C(=O)N1C(=O)NS(=O)(=O)N1C[C@@H](NC(=O)CNC(=O)c2cc(=O)c(O)cn2O)CC1=O |
| 0.5 (≈ 0.731 µM) | 5.7 ×10⁴ /M/s | 8 (≈ 11.7 µM) | 48 | 0.4 |  |  |  |  |  |  |  |  | C[C@H]1[C@H](NC(=O)/C(=N\OC(C)(C)C(=O)O)c2csc(N)n2)C(=O)N1C(=O)NS(=O)(=O)N1C[C@@H](NCc2cc(=O)c(O)c[nH]2)CC1=O |
| < 0.06 | 5.9 ×10⁴ /M/s | 0.5 (≈ 0.673 µM) | 87 | 0.26 | 16 (≈ 21.5 µM) | 0.49 | 32 (≈ 43.1 µM) | > 128 | 2 (≈ 2.69 µM) | 0.29 | 0.29 | 9 | C[C@H]1[C@H](NC(=O)/C(=N\OC(C)(C)C(=O)O)c2csc(N)n2)C(=O)N1C(=O)NS(=O)(=O)N1C[C@@H](NC(=O)NCc2cc(=O)c(O)cn2O)CC1=O |
